From patent US4552843A, “Process for producing an acidic polycyclic ether antibiotic by cultivation of a novel strain of Streptomyces endus subspecies aureus” (Pfizer Inc., priority 1984, dated 1985)
In brackets after ≈: the same amount, converted by molar mass. Like-named read-outs stand apart in the source and are kept apart here.

Key:
rumen fluid = assay: in vitro rumen technique, propionic acid production; parameters: species or system calf; details: for increase in propionic acid: comparison with Salinomycin; for increase in production of propionic acid over control: comparison with Monensin
Description: The value of animal feeds generally has been determined directly by feeding the animal. British Pat. No. 1,197,826 details an in vitro rumen technique whereby the changes occurring in feeds brought about by microorganisms are measured more readily and with great accuracy in the evaluation of animal feeds. This technique involves the use of an apparatus in which the digestive processes of the animals are conducted and studied in vitro. The animal feeds, rumen inoculum and various growth promotants are introduced into and withdrawn from a laboratory unit under carefully controlled conditions and the changes taken place are studied critically and progressively during the consumption of the feed by the microorganisms. […] The change in propionic acid content is expressed as percent of the propionic acid content found in the control rumen fluid. Long term in vivo feeding studies are used to show a reliable correlation between propionic acid increase in the rumen fluid and improved animal performance.
Rumen fluid is collected from a fistulated calf which is fed on a commercial fattening ration plus hay. The rumen fluid is immediately filtered through cheese cloth, and 10 ml added to a 50 ml conical flask containing 400 mg of standard substrate (68% corn starch +17% cellulose +15% extracted soybean meal), 10 ml of a pH 6.8 buffer and the test compound. The flasks are gassed with oxygen free nitrogen for about two minutes, and incubated in a shaking water bath at 39° C. for about 16 hours. All tests are conducted in triplicate.
After incubation, 5 ml of the sample is mixed with 1 ml of 25% metaphosphoric acid. After 10 minutes 0.25 ml of formic acid is added and the mixture centrifuged at 1500 RPM for 10 minutes. Samples are then analyzed by gas-liquid chromatography by the method of D. W. Kellog, J. Dairy Science, 52, 1690 (1969). Peak heights for acetic, propionic and butyric acids are determined for samples from untreated and treated incubation flasks.

Corynebacterium pyogenes = assay: in vitro MIC test (Table I); format: cell-based; details: 24 hours
Description: (§1) In Table I, below, the results of in vitro MIC tests are summarized. For this test each organism is inoculated in a series of test tubes of CP-63,517 to determine the minimal concentration of the antibiotic in mcg/ml which inhibits the growth of the organism over a period of 24 hours (MIC).

Moraxella bovis = assay: in vitro MIC test (Table I); format: cell-based; details: strain 93A001, 24 hours
Description: as §1

Fusobacterium plauti = assay: in vitro MIC test (Table I); format: cell-based; details: Flavonifractor plautii; strain 84G001; 24 hours
Description: as §1

Bacteroides vulgates = assay: in vitro MIC test (Table I); format: cell-based; details: 24 h
Description: as §1

F. necrophorum = assay: in vitro MIC test (Table I); format: cell-based; details: Fusobacterium necrophorum; strain 84C004; 24 hours
Description: as §1

[1] = system: Staphylococcus epidermidis; assay: in vitro MIC test (Table I); format: cell-based; details: 24 h
Description: as §1

Staphylococcus aureus = assay: in vitro MIC test (Table I); format: cell-based; details: 24 h
Description: as §1

Peptococcus sp. = assay: in vitro MIC test (Table I); format: cell-based; details: strain 17B001; 24 hours
Description: as §1

P. haemolytica = assay: in vitro MIC test (Table I); format: cell-based; details: Mannheimia haemolytica, 24 h
Description: as §1

Treponema hyodysenteriae = assay: in vitro MIC test (Table I); format: cell-based; details: for MIC: 24 hours
Description: as §1

L. catenaforme = assay: in vitro MIC test (Table I); format: cell-based; details: strain 09C001; 24 hours
Description: as §1

Haemophilus parahemol. = assay: in vitro MIC test (Table I); format: cell-based; details: strain 54B002, 24 hours
Description: as §1

Streptococcus pyogenes = assay: in vitro MIC test (Table I); format: cell-based; details: strain 020054, 24 hours
Description: as §1

Bordatella bronchi = assay: in vitro MIC test (Table I); format: cell-based; details: 24 h
Description: as §1

Pasteurella multocida = assay: in vitro MIC test (Table I); format: cell-based; details: 24 h
Description: as §1

Lactobacillus casei = assay: in vitro MIC test (Table I); format: cell-based; details: Lacticaseibacillus casei; strain 09B001; 24 hours
Description: as §1

Erysip. rhusio = assay: in vitro MIC test (Table I); format: cell-based; details: strain 04A005; 24 hours
Description: as §1

[2] = system: Gram-positive microorganisms; assay: inhibitory action against growth of Gram-positive microorganisms; format: cell-based; details: in vitro
Description: as §1

## COC1CCC(OC2CC3(CC(O)C(C)C(C(C)C=C(C)C(=O)C(C)CC(C)C(=O)O)O3)OC2(C)C2CCC(C)C3(OC(C4OC(O)(CO)C(C)CC4C)CC3C)O2)OC1C (stereo not drawn) [CP-63,517]
Rumen fluid; 5 μg/ml
  increase in propionic acid: about 66%
Rumen fluid; 20 μg/ml
  increase in propionic acid: about 86%
Rumen fluid; 10 micrograms per milliliter (10 μg/ml)
  increase in production of propionic acid over control: 95%
Rumen fluid; 20 micrograms per milliliter
  increase in production of propionic acid over control: 96%
Corynebacterium pyogenes; Trueperella pyogenes, strain 11D001, read-out: MIC
  MIC: 12.5 µg/mL (≈ 14.4 µM)
Corynebacterium pyogenes; strain 11D002
  MIC: 12.5 µg/mL (≈ 14.4 µM)
Corynebacterium pyogenes; strain 11D003
  MIC: 12.5 µg/mL (≈ 14.4 µM)
Moraxella bovis
  MIC: 50 µg/mL (≈ 57.7 µM)
Fusobacterium plauti
  MIC: 0.39 µg/mL (≈ 0.45 µM)
Bacteroides vulgates
  MIC: 25 µg/mL (≈ 28.8 µM)
F. necrophorum
  MIC: 25 µg/mL (≈ 28.8 µM)
[1]; strain 01B087
  MIC: 0.78 µg/mL (≈ 0.9 µM)
[1]; strain 01B111
  MIC: 0.39 µg/mL (≈ 0.45 µM)
Staphylococcus aureus; strain 01A005
  MIC: 0.39 µg/mL (≈ 0.45 µM)
Staphylococcus aureus; strain 01A052
  MIC: 0.39 µg/mL (≈ 0.45 µM)
Staphylococcus aureus; strain 01A106
  MIC: 0.78 µg/mL (≈ 0.9 µM)
Staphylococcus aureus; strain 01A110
  MIC: 0.39 µg/mL (≈ 0.45 µM)
Staphylococcus aureus; strain 01A539
  MIC: 0.78 µg/mL (≈ 0.9 µM)
Staphylococcus aureus; strain 01A543
  MIC: 3.12 µg/mL (≈ 3.6 µM)
Peptococcus sp.
  MIC: ≤ 0.1 µg/mL
P. haemolytica; strain 59B018
  MIC: 0.39 µg/mL (≈ 0.45 µM)
P. haemolytica; strain 59B046
  MIC: 0.39 µg/mL (≈ 0.45 µM)
P. haemolytica; strain 59B061
  MIC: 50 µg/mL (≈ 57.7 µM)
Treponema hyodysenteriae; Brachyspira hyodysenteriae, strain 94A001, read-out: MIC
  MIC: 6.25 µg/mL (≈ 7.21 µM)
Treponema hyodysenteriae; in vitro
  activity against Treponema hyodysenteriae: possesses activity against Treponema hyodysenteriae
Treponema hyodysenteriae; strain 94A002
  MIC: 6.25 µg/mL (≈ 7.21 µM)
L. catenaforme
  MIC: 0.39 µg/mL (≈ 0.45 µM)
Haemophilus parahemol.
  MIC: 25 µg/mL (≈ 28.8 µM)
Streptococcus pyogenes
  MIC: 0.1 µg/mL (≈ 0.115 µM)
Bordatella bronchi; strain 73A006
  MIC: 0.39 µg/mL (≈ 0.45 µM)
Bordatella bronchi; strain 73A016
  MIC: 6.25 µg/mL (≈ 7.21 µM)
Pasteurella multocida; strain 59A013
  MIC: 50 µg/mL (≈ 57.7 µM)
Pasteurella multocida; strain 59A048
  MIC: 0.39 µg/mL (≈ 0.45 µM)
Lactobacillus casei
  MIC: 0.39 µg/mL (≈ 0.45 µM)
Erysip. rhusio
  MIC: 0.39 µg/mL (≈ 0.45 µM)
[2]
  antibacterial / growth inhibitory activity: exhibits inhibitory action against the growth of a number of Gram-positive microorganisms
